Drawing on patent US11746116B2, “Antibiotic resistance breakers” (KING'S COLLEGE LONDON, priority 2017, dated 2023), this text covers MIC for two compounds.

The test system of one assay is VSE775. The assay can be described thus: MIC, microdilution broth method. The class given is cell-based, Enterococcus faecalis. As to conditions: VSE775; in µg/mL. (Broth dilution looks for growth in wells or tubes with falling amounts of substance.)
The subject of the next assay is UKA7. The assay can be described thus: MIC, A. baumannii extended panel. Type of assay: cell-based.
The subject of a further assay is 12156. The assay can be described thus: MIC, A. baumannii extended panel. As to conditions: A. baumannii 12156. The class given is cell-based.
Another assay relates to VRE12204. Briefly: MIC, microdilution broth method. As to conditions: VRE12204; in µg/mL. Type of assay: cell-based, Enterococcus faecium.
Another assay concerns UKA13. Briefly: MIC, A. baumannii extended panel. Type of assay: cell-based.
A further assay relates to UKA10. The assay can be described thus: MIC, A. baumannii extended panel. The class given is cell-based.
The next assay concerns Ab17978. Briefly: MIC, microdilution broth method. Type of assay: cell-based. As to conditions: Ab17978; Normal (no PMBN); in µg/mL.
Another assay concerns MSSA9144. Briefly: MIC, microdilution broth method. As to conditions: MSSA9144; in µg/mL. Type of assay: cell-based, Staphylococcus aureus.
The test system of the next assay is PA01. The assay can be described thus: MIC, microdilution broth method. The class given is cell-based, Pseudomonas aeruginosa. As to conditions: PA01; Normal (no PMBN); in µg/mL.
In a further assay the test system is SA2. The assay can be described thus: MIC, extended Gram-positive panel. Type of assay: cell-based, S. aureus. As to conditions: S. aureus SA2.
For another assay, the system named is UKA12. The assay can be described thus: MIC, A. baumannii extended panel. The class given is cell-based.
A further assay deals with 13423. Briefly: MIC, A. baumannii extended panel. The class given is cell-based. As to conditions: A. baumannii 13423.
A further assay concerns UKA16. The assay can be described thus: MIC, A. baumannii extended panel. Type of assay: cell-based.
The next assay has as its system OXA23.1. Briefly: MIC, A. baumannii extended panel. Type of assay: cell-based. As to conditions: A. baumannii OXA23.1.
The next assay concerns UKA1. Briefly: MIC, A. baumannii extended panel. Type of assay: cell-based.
The next assay relates to 13302. Briefly: MIC, A. baumannii extended panel. Type of assay: cell-based. As to conditions: A. baumannii 13302.
Another assay relates to A601. The assay can be described thus: MIC, A. baumannii extended panel. The class given is cell-based.
For the next assay, the system named is W1. Briefly: MIC, A. baumannii extended panel. The class given is cell-based.

Values after ≈ are worked out from the molar mass of the structure shown. Bounds are passed on as bounds.

As to `O=C(O)c1cn(C2CC2)c2cc(N3CCNCC3)c(F)cc2c1=O` [Ciprofloxacin, ciprofloxacin, reference compound], the MIC against VSE775 is 1; in the assay on UKA7, more than 512 µg/mL; with 12156, 1 µg/mL (≈ 3.02 µM); in the assay with VRE12204, 1; in the assay with UKA13, 512 µg/mL (≈ 1550 µM); against UKA10, 256 µg/mL (≈ 773 µM). Also, the MIC in the assay on Ab17978 worked out at 0.25; against MSSA9144 it was 0.25; against PA01, 0.25; with SA2, 1 µg/mL (≈ 3.02 µM); in the assay on UKA12, 512 µg/mL (≈ 1550 µM); in the assay on 13423, 256 µg/mL (≈ 773 µM).
As for `Cl.O=C(O)c1cn(C2CC2)c2cc(N3CCN(Cc4ccc(CO)cc4)CC3)c(F)cc2c1=O` [ML-77-158], the MIC was found to be 32 µg/mL against UKA16; 64 µg/mL with UKA7; 0.5 µg/mL in the assay with 12156; 32 µg/mL in the assay on UKA13; 64 µg/mL against OXA23.1; 16 µg/mL in the assay on UKA1. In addition, the MIC was 64 µg/mL in the assay with 13302, 8 µg/mL in the assay on A601, 32 µg/mL against UKA12 and 32 µg/mL against W1.
